Molecules are shown by their SMILES. Read-outs that look alike come from different tables or passages of the source.

The subject of one series is S. aureus SH1000. In words: Planktonic MIC by broth microdilution (BSAC guidelines). It is filed as cell-based, Staphylococcus aureus. As to the method: (§1) Methods: MICs were determined for planktonic cultures by broth microdilution according to British Society for Antimicrobial Chemotherapy (BSAC) guidelines. Biofilm MICs (bMIC) and minimum biofilm eradication concentrations (MBECs) were determined using the Calgary biofilm device. The effect of Compound 10 on the viability of cold culture cells was determined by growing S. aureus SH1000 to early exponential phase at 37° C. and resuspending the cells in pre-chilled media, where they were maintained in the presence and absence of Compound 10 and control agents. The effect of Compound 10 on slow growing cells expressing the stringent response was also determined by growing cultures to early log phase and the stringent response induced by the addition of the isoleucyl-tRNA synthetase inhibitor mupirocin. Compound 10 and control agents were then added and samples recovered for viable cell determinations.

In series [1] the test system is S. aureus SH1000 biofilms. In words: Biofilm MIC and minimum biofilm eradication concentration, Calgary Biofilm Device. The series is classed as cell-based, Staphylococcus aureus. The following applies: Staphylococcus aureus, SH1000BIOFILMS, biofilm MIC, read-out: bMIC. As to the method:
as §1
Biofilm MICs and minimum biofilm eradication concentrations (MBEC) were determined in the Calgary Biofilm Device (Nunc Inc, Roskilde, Denmark) as described by Miller et al., 2005. This involves the following steps. Aliquots (200 μL) of exponential phase cultures of strain SH1000 were added to each well of a 96-well microtitre tray. The lid assembly, which has 96 polystyrene pegs corresponding to each well, was then replaced and the system incubated for 24 hours at 37° C. on a rocking platform. Following this a biofilm of approximately 10^7 cfu matured on each peg. The lid was then washed twice in phosphate-buffered saline (PBS) to remove residual planktonic growth and then placed into a microtitre tray with fresh media containing doubling dilutions of the test antibiotic. The system was then incubated for 24 hours at 37° C. on a rocking platform. The MIC was defined as the lowest concentration of antibiotic completely inhibiting visible growth after this incubation. After the MIC was recorded, the lid assembly was again washed twice in PBS to remove planktonic cells and remaining antibiotic and then placed into fresh drug-free media. The system was incubated for a further 24 hours and the MBEC was defined as the lowest concentration of antibiotic completely inhibiting the re-establishment of planktonic growth.

The test system of another series is E. coli cells. In words: Binding of compounds with bacterial cells (spectrofluorimetric analysis of cell lysates). Particulars: 5 min incubation. As to the method:
[…] At the end of the incubation period, the cells were sedimented by centrifugation to remove the fraction of unbound test compound and the cell pellet was resuspended in 2 ml of 2% SDS to obtain cell lysates. After overnight incubation with SDS, the amount of cell-bound test compound was estimated by spectrofluorimetric analysis of the cell lysates. The concentration of the compounds in the cell lysates was calculated by measuring the intensities at the maximum of the emission fluorescence spectrum and interpolating the data on a calibration plot. The amount of cell-bound test compound was expressed as nmoles of compound per mg of cell protein. The protein concentration was determined by the method of Lowry (Lowry et al., 1951, J. Biol. Chem. 193:265-275).
All experiments were run in triplicate and the results represent the average of 3 determinations with standard deviations.

In series [2] the test system is S. aureus SH1000 cold cultures. In words: Time-kill against cold cultures (4° C.). The series is classed as cell-based, Staphylococcus aureus. The following applies: for viability / bactericidal activity in time-kill (in words): cold culture held at 4° C. for 5 hours, agents at 4×MIC. As to the method:
as §1
The effect of XF drugs on the viability of cold culture cells was determined by growing S. aureus SH1000 to early exponential phase at 37° C., harvesting the cells by centrifugation (5,000×g, 10 min.) and resuspending them in pre-chilled media where they were maintained in the presence and absence of XF drugs and control agents for 5 hours. […] (FIG. 11).
The anti-staphylococcal activities of Compound 10, Compound 12 and a range of comparator agents against slow-growing cultures of Staphylococcus aureus were studied using standard time-kill methodology (Oliva et al. 2003, Hobbs et al. 2008). Staphylococcus aureus SH1000 cultures were grown to early exponential phase (OD600 nm of 0.2) in Mueller-Hinton broth (MHB) before being exposed to antibacterial agents at 4×MIC. An untreated culture served as the negative control. The experiments were undertaken in triplicate.
Cold cultures were prepared by growing SH1000 cells to early exponential phase (OD600 nm of 0.2) at 37° C. Cultures were then centrifuged and the cell pellet was resuspended in MHB pre-chilled to 4° C. The killing kinetics of antimicrobial agents were studied as described in the section above, with the exception that cultures were maintained at 4° C. over the 5 hour sampling period.

Series [3] has as its system normal human dermal fibroblasts (NHDF). In words: Toxicity against human skin cells, MTT-assay. The series is classed as cell-based. Particulars: 5 min, 1 h, 4 h incubation, 0.01-10 μM, then 24 h in the dark. As to the method: NHDF were incubated with different concentrations of Compound 10 for 5 min, 1 h and 4 h (0 μM, 0.01 μM, 0.1 μM, 1.0 μM, 10 μM). Cells were then incubated for 24 h in the dark. Toxicity was tested by standard MTT-assay. Cell viability was normalised to one, which means, the values of control cells were normalised to one. Grey dotted line: 5 min incubation; black dotted: 1 h incubation; black line: 4 h incubation; (n=3, mean±SD).
Test compounds were screened for toxicity against cultured human skin cells using normal human epidermal keratinocytes (NHEK) and normal human dermal fibroblasts (NHDF), purchased from CellSystems Biotechnologie GmbH, Germany.
The NHEK and NHDF cells were used between passages 3 and 10. The cells were seeded with 7.5 and/or 15×10^4 cells/well (microtitre plate) and were allowed to attach overnight in an incubator (37° C., 5% CO2). After incubation with different concentrations of the selected photosensitisers for various times, the cells were incubated for 24 hours in the dark.
Toxicity was tested by standard MTT-assay (Mossman et al., 1983 J. Immunological Methods 65: 55-63). MTT is an indicator of metabolically active cells. Dependent on enzyme activity in mitochondria a colour reaction can be visualised, which can be measured by ELISA reader (540 nm). […]

Setting [4] is: 24 h, S. aureus SH1000, Calgary Biofilm Device, 24 hours (Table 6).

As for `C[N+](C)(C)CCCOc1ccc(-c2c3nc(cc4ccc([nH]4)c(-c4ccc(OCCC[N+](C)(C)C)cc4)c4nc(cc5ccc2[nH]5)C=C4)C=C3)cc1.[Cl-].[Cl-]` [Compound 10, 5,15-bis-[4-(3-Trimethylammonio-propyloxy)-phenyl]-porphyrin dichloride], the MIC in the series on S. aureus SH1000 (Staphylococcus aureus, planktonic S. aureus SH1000 (Table 5), read-out: MIC) is 1 µg/mL; against S. aureus SH1000 (planktonic S. aureus SH1000 (Table 6)), 1 µg/mL; in series [1] (setting [4]) it was 1 µg/mL; in series [1] (S. aureus SH1000, Calgary device (Example H)), 1 µg/mL. The Bound compound in the series with E. coli cells (0.01 μM compound, 0 washings) turned out to be 0.026 ± 0.005 nmoles/mg cell proteins; in the series with E. coli cells (0.01 μM compound, 3 washings), 0.015 ± 0.0004 nmoles/mg cell proteins; in the series with E. coli cells (0.1 μM compound, 0 washings), 0.274 ± 0.05 nmoles/mg cell proteins; in the series on E. coli cells (0.1 μM compound, 3 washings) it was 0.078 ± 0.02 nmoles/mg cell proteins; with E. coli cells (0.5 μM compound, 0 washings), 1.542 ± 0.350 nmoles/mg cell proteins; in the series with E. coli cells (0.5 μM compound, 3 washings), 0.334 ± 0.092 nmoles/mg cell proteins. Also, the Bound compound is 2.70 ± 0.354 nmoles/mg cell proteins in the series on E. coli cells (1 μM compound, 0 washings) and 1.278 ± 0.102 nmoles/mg cell proteins with E. coli cells (1 μM compound, 3 washings). Moreover, the drop in viability in series [2] (cold culture (4° C.), 4×MIC, within 1 hour) is recorded as 5 log. In series [2], the “viability / bactericidal activity in time-kill (in words)” value was “retained potent bactericidal activity”. Besides, in series [3], the “Innate toxicity (cell viability, MTT)” value is “does not demonstrate an innate toxicity”.

Regarding `C[N+](C)(C)CCCOc1cccc(-c2c3nc(cc4ccc([nH]4)c(-c4cccc(OCCC[N+](C)(C)C)c4)c4nc(cc5ccc2[nH]5)C=C4)C=C3)c1.[Cl-].[Cl-]` [Compound 12, 5,15-bis-[3-(3-Trimethylammonio-propyloxy)-phenyl]-porphyrin dichloride], the MIC was determined as 1 µg/mL with S. aureus SH1000 (Staphylococcus aureus, planktonic S. aureus SH1000 (Table 6), read-out: MIC) and 1 µg/mL in series [1] (setting [4]). Also, the Bound compound is given as 0.041 ± 0.02 nmoles/mg cell proteins in the series on E. coli cells (0.01 μM compound, 0 washings); 0.021 ± 0.005 nmoles/mg cell proteins in the series on E. coli cells (0.01 μM compound, 3 washings); 0.151 ± 0.02 nmoles/mg cell proteins with E. coli cells (0.1 μM compound, 0 washings); 0.089 ± 0.02 nmoles/mg cell proteins with E. coli cells (0.1 μM compound, 3 washings); 0.806 ± 0.14 nmoles/mg cell proteins in the series with E. coli cells (0.5 μM compound, 0 washings); 0.622 ± 0.10 nmoles/mg cell proteins in the series with E. coli cells (0.5 μM compound, 3 washings). In addition, the Bound compound in the series with E. coli cells (1 μM compound, 0 washings) was 2.70 ± 0.30 nmoles/mg cell proteins; in the series with E. coli cells (1 μM compound, 3 washings), 1.930 ± 0.20 nmoles/mg cell proteins. Further, the “viability / bactericidal activity in time-kill (in words)” value in series [2] is “retained potent bactericidal activity”.

(Values after patent publication US9326511B2, “Methods of inhibiting microbial biofilms” (priority 2008, dated 2016).)
